Measured values: PMC3256143, “Blue News Update: BODIPY-GTP Binds to the Blue-Light Receptor YtvA While GTP Does Not” (PLoS ONE, 2012)

Assays:
[1] = molecular target: T1, YtvA (Bacillus subtilis, UniProt O34627, M1G); test: ITC; also 1H-15N TROSY/HSQC, STD and WaterLOGSY NMR, fluorescence; format: binding
T1 construct: gene pfyP; full-length YtvA (Met1 replaced by Gly)

[2] = molecular target: T2, YtvA (Bacillus subtilis, UniProt O34627, M1G); test: fluorescence enhancement on adding protein ([…] YtvA, […] dye); format: binding
T2 construct: gene pfyP; full-length YtvA and isolated STAS domain (amino acids 148–261)
T2 sequence (O34627 1-261 M1G): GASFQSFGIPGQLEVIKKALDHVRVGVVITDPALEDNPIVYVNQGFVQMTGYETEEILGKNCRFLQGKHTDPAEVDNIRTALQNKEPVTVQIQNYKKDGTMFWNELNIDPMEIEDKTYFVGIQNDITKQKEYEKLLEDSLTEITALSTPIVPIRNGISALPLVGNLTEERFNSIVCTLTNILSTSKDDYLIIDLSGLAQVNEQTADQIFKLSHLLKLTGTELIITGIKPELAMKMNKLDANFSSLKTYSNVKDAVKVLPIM

SMILES	Kd [1] [nM]	fluorescence enhancement on adding protein (12 μM YtvA, 2.2 μM dye) [2]
Nc1nc2c(ncn2[C@@H]2O[C@H](COP(=O)(O)OP(=O)(O)OP(=O)(O)O)[C@@H](O)[C@H]2OC(=O)NCCNC(=O)COc2ccc(C3=[N+]4C(=Cc5ccc(-c6cccs6)n5[B-]4(F)F)C=C3)cc2)c(=O)[nH]1 [BODIPY-GTP]	2500	–
COC(=O)COc1ccc(-c2ccc3n2[B-](F)(F)[N+]2=C(c4cccs4)C=CC2=C3)cc1 [BODIPY methyl ester]	–	This suggests that only the fluorophore is binding to the protein but the GTP part does not.
